Test results reported in patent US20090291071A1, “COMPOSITIONS AND METHODS FOR CONTROLLING LIPID METABOLISM” (priority 2007, published 2009).
Like-named read-outs stand apart in the source and are kept apart here.

Legend:
LDL = details: humans, daily ingestion of 1,200 IU; cited from earlier work
lipoprotein [1] = assay: Inhibition of lipoprotein oxidation (heart disease model); format: biochemical; set-up: % Inhibition Vit C Alone: concentration or dose not given beside the values
From the text: Various combinations of antioxidants were studied to determine synergetic effects on lipoprotein oxidation. […] The antioxidants were used alone and together at micromolar and submolar concentrations to determine additive and […] effects on percentage inhibition of lipoprotein oxidation. A result when used together which is greater than the sum of this effects alone is considered to be a synergistic response. […] (Upper Panel) and Grow C (a natural Vitamin C extract) (Lower Panel).

lipoprotein [2] = assay: Glycation of lipoprotein by sugars; format: biochemical; details: for glycation of the lipoprotein by glucose and D-ribose: combined with glucose or D-ribose, and lipoprotein
From the text: When dried beer solids, […], Vitamin E and Vitamin C were combined with glucose or D-ribose, and lipoprotein, glycation of the lipoprotein by glucose and D-ribose was inhibited. Similarly when RBC-Vitamin C or Vitamin E were combined with sorbitol and lipoprotein, glycation of the lipoprotein by sorbitol was inhibited.

Which “increase of the (alpha)-tocopherol content of LDL” value (LDL) does the source give for Cc1c(C)c2c(c(C)c1O)CC[C@@](C)(CCC[C@H](C)CCC[C@H](C)CCCC(C)C)O2 [E, α-tocopherol] here?
Its value is “up to 215%”.

And the “increase of the resistance of LDL to oxidation” value (LDL)?
The value was ≤ 175%.

What about the “% Inhibition of E Alone” value (lipoprotein [1]; E 25.6 mg) of the same molecule?
Its value is 10.1%.

What about the “glycation of the lipoprotein by glucose and D-ribose” value (lipoprotein [2]) of the same molecule?
Its value is “inhibited”.

And the “glycation of the lipoprotein by sorbitol” value (lipoprotein [2]; combined with sorbitol and lipoprotein)?
The value was “inhibited”.

Which results are given for O=C1O[C@H]([C@@H](O)CO)C(O)=C1O [Vit C, ascorbic acid]?
% Inhibition Vit C Alone (lipoprotein [1]; line of Weight Ratio Vit C:DBS 0.136:1): 0%; % Inhibition Vit C Alone (lipoprotein [1]; line of Weight Ratio Vit C:DBS 0.274:1): 1.2%; % Inhibition Vit C Alone (lipoprotein [1]; line of Weight Ratio Vit C:DBS 0.343:1): 2.0%; % Inhibition Vit C Alone (lipoprotein [1]; line of Weight Ratio Vit C:DBS 0.520:1): 2.6%; % Inhibition Vit C Alone (lipoprotein [1]; line of Weight Ratio Vit C:DBS 0.680:1): 3.0%; glycation of the lipoprotein by glucose and D-ribose (lipoprotein [2]): inhibited

For Catechin, which “quantity of L-ascorbic acid remaining” value (0 h (time zero, reference)) is on record?
Its value is 100%.

And the “quantity of L-ascorbic acid remaining” value (6 h, test substance 0.01 mg/ml)?
The value was 14.6%.

What about the “quantity of L-ascorbic acid remaining” value (6 h, test substance 0.1 mg/ml) of the same molecule?
Its value is 16.7%.

What about the “quantity of L-ascorbic acid remaining” value (6 h, test substance 1.0 mg/ml) of the same molecule?
The value was 17.7%.

What about the “quantity of L-ascorbic acid remaining” value (20 h, test substance 0.01 mg/ml) of the same molecule?
Its value is 0.8%.

What about the “quantity of L-ascorbic acid remaining” value (20 h, test substance 0.1 mg/ml) of the same molecule?
Its value is 0.8%.

What about the “quantity of L-ascorbic acid remaining” value (20 h, test substance 1.0 mg/ml) of the same molecule?
The value was 1.0%.

And the “quantity of L-ascorbic acid remaining” value (44 h, test substance 0.01 mg/ml)?
Its value is 1.4%.

And the “quantity of L-ascorbic acid remaining” value (44 h, test substance 0.1 mg/ml)?
Its value is 1.0%.

And the “quantity of L-ascorbic acid remaining” value (44 h, test substance 1.0 mg/ml)?
Its value is 1.2%.

What about the “quantity of L-ascorbic acid remaining” value (72 h, test substance 0.01 mg/ml) of the same molecule?
Its value is 2.4%.

And the “quantity of L-ascorbic acid remaining” value (72 h, test substance 0.1 mg/ml)?
Its value is 2.0%.

What about the “quantity of L-ascorbic acid remaining” value (72 h, test substance 1.0 mg/ml) of the same molecule?
Its value is 2.2%.

What about the “inhibition of L-ascorbic acid degradation” value (tested up to 1.0 mg/ml) of the same molecule?
The value was “Neither epicatechin (EPC) nor catechin (CAT) showed any inhibitory effects”.
